“Also recorded” adds a separate entry of the source.
What was measured:
WS-1 diploid fibroblast = assay: WST-1 cell viability assay, WS-1; type: cell-based, human; conditions: three days
Method: (§1) The effect of the compounds selected using the screening assay on the viability of several tumor cell lines as well as diploid cell lines and cell strains was studied. Cells were plated in 96-well plates at a density of 10,000 cells/100 μL/well and were incubated overnight. The following day compound dilutions ranging from 0 to 40 μM were applied to the cells in triplicate and the cells were incubated with the compounds for three days. Cell viability was assayed using the WST-1 cell proliferation reagent (Roche Diagnostics, Germany) The WST-1 reagent was diluted 1:10 in cell culture media and 100 μL of the reagent dilution was applied onto cells followed by 1 hour incubation at +37° C. The specific absorbance was measured at 450 nm and a reference absorbance was measured at 690 nm. […] Analysis for Protein Levels

A375 melanoma cells = assay: Flow cytometry cell cycle and apoptosis analysis; type: cell-based; conditions: A375, three days at 10 μM or six days at 5 μM
Method: Cell cycle analysis and cellular apoptosis was assayed with flow cytometry (LSR, Beckton Dickinson). Cells were treated with the compounds and both floating and adherent cells were harvested and fixed in 70% ethanol at −20° C. followed by staining of DNA with propidium iodide. A total of 10,000 counts were collected and data was analysed using ModFit LT 3.1 software. Cells present in sub-G1 population were regarded as apoptotic.

[1] = tested on: Human intestinal endothelial cells; assay: WST-1 cell viability assay, intestinal endothelial cells; type: cell-based; conditions: three days
Method: as §1

[2] = tested on: p53DsRed reporter in PG3/9 melanoma cells (A375 clone); assay: p53DsRed reporter activation assay (in vitro p53 activity assay); type: cell-based; conditions: for EC50: Homo sapiens, A-375, PG3/9 melanoma cells, 24 hours, read-out: effective concentration (EC50), p53DsRed reporter activation; for fraction of p53-reporter activated cells at high concentrations: apparently due to excessive cell death
Method: The ability of the compounds to activate p53 was analyzed using a cell-based assay. To establish the assay, a stable cell transfectant expressing a p53-responsive reporter was generated. A375 melanoma cell line (ATCC CRL-1619) was transfected with a vector containing the p53 consensus element 13x repeat (13XRE) (Kern et al., 1991) cloned to a DsRed Express reporter vector (Clontech) to yield the vector “PG13DsRed”, hereafter termed as “p53DsRed”. […] The cell clone PG3/9 was used in the screen.
The assay was carried out in a 96-well format and all plate handlings were done using liquid handling robots (Thermo CRS, Thermo Electron Corporation; Biomek FX, Beckman Coulter and Hamilton STAR, Hamilton Microlab). Cells were plated at 10,000 cells/100 μL/well onto 96-well ViewPlates (Packard) and incubated overnight at +37° C. and 5% CO2. Small molecule compound chemical libraries were purchased and diluted to dimethylsulfoxide (DMSO) at 10 mM concentration. The compounds were pin-transferred to plain media at approximately 3 μM concentration either as single (one compound/one well) or pools of compounds (two compounds/one well). The growth media was removed and replaced with media with the test compounds followed by incubation of the cells for 24 h at +37° C. and 5% CO2. […] Following the incubation, the cells were washed with phosphate buffered saline and fixed with paraformaldehyde (PFA, 4%, 25 min, RT) and cell nuclei were stained with Hoechst 33342 (Molecular Probes, 4 μg/mL, 2 min, RT).
The fluorescence signals of Hoechst 33342 and DsRed reporter expression in the fixed cells were analyzed using ArrayScan 4.5 high-content screening platform (Cellomics) including an inverted microscope (Zeiss 200M) with 10× objective (Zeiss), Omega XF93 filter (Omega), ORCA-AG CCD camera (Hamamatsu). The algorithm used for image acquisition and analysis was Target Activation Bioapplication (Cellomics), which was set to analyse the total number of cells and the percentage of p53 reporter positive cells termed as “responders”. For each well, four images on both fluorescence channels were acquired corresponding to approximately 1700 cells in mock-treated wells. The mean number of responders was calculated for each well, and compounds causing reporter activation for more than two times the mean number of responders in the mock treated cells in each plate were regarded as hits.
In the secondary screen the hits were collected and tested over 100 nM to 10 μM concentration range. The compound treatment time, cell fixations and stainings as well as fluorescence signal detection was as described above. Compounds providing consistent p53DsRed reporter activation at low μM concentration range were selected for further testing. The effective concentration 50 (EC50) was calculated using the following formula: […]

[3] = tested on: normal human primary melanocytes; assay: WST-1 cell viability assay, melanocytes; type: cell-based; conditions: Melanocyte, three days
Method: as §1

[4] = tested on: p53, Mdm2 and p21 levels in A375 melanoma cells; assay: Immunoblotting and immunofluorescence for p53, Mdm2 and p21 levels; type: cell-based; conditions: A375, 24 hours, 5 μM
Method: To study the effect of compounds on endogenous protein levels, A375 melanoma cells were treated with the compounds for 24 hours. Cellular lysates were prepared in lysis buffer containing 0.5% NP-40 with proteinase inhibitors. Protein (20-30 μg) was separated by sodium dodecyl sulphate-polyacrylamide gel electrophoresis (SDS-PAGE) followed by transfer to PVDF membrane (Immobilon™-P, Millipore, Bedford, Mass., USA). Immunoblotting was carried out using DO-1 antibody for p53, 2A10 for Mdm2 and anti-p21 (Becton Dickinson) to detect p21, followed by secondary antibodies conjugated with horseradish peroxidase (p53) or biotin followed by streptavidin-horseradish peroxidase (Mdm2 and p21) after which proteins were detected with enhanced chemiluminescence (ECL, Amersham Life Sciences). Equal protein loading was verified using GAPDH (p9.B.88, Europa Bioproducts Ltd, UK) as a protein loading control.
(§2) Immunofluorescence staining was carried out to determine the correct localisation of p53 and to detect H2AX phosphorylation indicative of genotoxic stress. Cells were treated with the compounds and fixed in paraformaldehyde (3.5 PFA, 25 min RT). The coverslips were permeabilised in 0.5% NP-40 and blocked in 3% bovine serum albumin (BSA). p53 was detected by staining with FL-393 antibody (Santa Cruz, 1:50, 1 h at +37° C.) followed by Alexa-594 conjugated secondary antibody (Molecular Probes, 1:200, 1 h at +37° C.), phospho-H2AX was detected by staining with anti-H2AX (P-Ser-139) antibody (Upstate, 1:200 1 h at +37° C.) followed by Alexa-488 conjugated secondary antibody (Molecular Probes, 1:200, 1 h at +37° C.). Nuclei were stained with Hoechst 33342. Images were captured using the Zeiss Axioplan fluorescence microscope equipped with Zeiss AxioCam HRc CCD-camera and AxioVision 4.5 software using 40×, NA=0,75 objective, Chroma 31000, Chroma41001 and 41004 filters for Hoechst, Alexa488 and Alexa594, respectively.

RPMI7951 (MUTp53) = assay: WST-1 cell viability assay, RPMI-7951; type: cell-based; conditions: three days
Method: as §1

A375 melanoma (WTp53) = assay: WST-1 cell viability assay, A375; type: cell-based; conditions: for IC50: A375 melanoma (WTp53), three days, WST-1
Method: as §1

In vivo toxicity tests = conditions: mice; for acute or chronic toxicities based on histological HE-stainings: i.p., 5, 10 and 20 mg/kg three times a week for three weeks; for toxicity by weight curves, macroscopical pathologies, hematoxylin-eosin staining of tissues: i.p., 5, 10 and 20 mg/kg, 9 doses/3 weeks
Method: Acute and chronic toxicity of the compounds was tested on FVB/N mice. Female mice of 4-6 weeks old were purchased from Harlan and 2 animals were used per compound dose. The mice were injected intraperitoneally with the compounds three times a week for three weeks in 30 microL DMSO. Two animals received vehicle only (=30 μL DMSO). The animals were weighed prior to injections and were monitored for any signs of toxicity, distress or unusual behaviour. The animals were sacrificed three days after receiving the final injection. The liver, kidney, spleen, small intestine and thymus were excised and fixed in 4% paraformaldehyde overnight, and processed into paraffin-blocks. Haematoxylin-eosin staining (HE staining) of the tissues was performed using standard immunohistological techniques.

[5] = tested on: phosphorylation of histone H2AX on serine-139 (γH2AX) in A375 melanoma cells; assay: Phospho-H2AX immunofluorescence (genotoxic stress); type: cell-based; conditions: A375, 5 μM, 24 hours
Method: as §2

[6] = tested on: BC3-luc pleural effusion lymphoma cells; assay: Orthotopic xenograft model of pleural effusion lymphoma; type: in vivo; conditions: NOD-SCID mice, 20 mg/kg i.p. seven times
Method: An orthotopic xenograft model of pleural effusion lymphoma was used to assess the anti-tumor activities of compounds 15, 21 and 22. Female NOD-SCID mice (Charles River, France) were injected intraperitoneally with pleural effusion lymphoma cells carrying a stable NF-kappaB regulated luciferase reporter (BC3-luc cells) (Keller et al., 2006). The tumors were allowed to establish for three days after which the mice were imaged and divided into treatment (groups 4-5 mice per group). The compound treatments were initiated on day four. The mice received 2 mg/kg (cmp21) or 20 mg/kg (cmp15 and 22) every other/third day for seven times via i.p. injections, control mice received DMSO only. The mice were imaged prior to each compound injection. Imaging was carried out with Xenogen In Vivo Imaging System (IVIS), D-luciferin (Synchem OHG, Germany) was injected intraperitoneally (100 mg/kg) 10-15 min prior to each imaging. Quantitation was done using Igor Pro Carbon analysis software, bioluminescence was quantitated and plotted as total flux within a given ROI.

[7] = tested on: B-cell lymphoma (Kaposi's sarcoma herpes virus-infected pleural effusion lymphoma) cells; conditions: cited from earlier work

| Structure (SMILES) | IC50 (WS-1 diploid fibroblast; Homo sapiens, 72 h) | cell cycle / apoptosis phenotype (A375 melanoma cells) | IC50 ([1]; Endothelial cell, 72 h) | EC50 [2] | IC50 ([3]; Homo sapiens, 72 h) | IC50 (RPMI7951 (MUTp53); Homo sapiens, RPMI-7951, 72 h) | IC50 (A375 melanoma (WTp53); Homo sapiens, A-375, 72 h) | acute or chronic toxicities based on histological HE-stainings (In vivo toxicity tests) | toxicity by weight curves, macroscopical pathologies, hematoxylin-eosin staining of tissues (In vivo toxicity tests) | also measured |
| --- | --- | --- | --- | --- | --- | --- | --- | --- | --- | --- |
| COc1cccc2c(N)c3c(cnn3C)nc12 [Compound 1, 5-methoxy-1-methylH-pyrazolo[4,3-b]quinolin-9-amine] | 10.4 µM | G2-phase arrest and apoptosis | 13.1 µM | 3.3 µM | 30.4 µM | 14.7 µM | 4.3 µM |  |  | fraction of p53-reporter activated cells at high concentrations [2]: decrease in the fraction of p53-reporter activated cells; Mdm2 induction [4]: most prominent; fold difference IC50 (A375)/ IC50 (WS-1) (A375 melanoma (WTp53); A375 melanoma versus WS-1 normal cells): 2.4 fold |
| CN(C)CCCNc1nn2c(=O)c3ccccc3nc2c2ccccc12 [Compound 7] | 18.1 µM | imminent G2-phase arrest and increased the apoptotic fraction of the cells | 19.6 µM | 6.6 µM | 32.4 µM | 16.8 µM | 3 µM | No acute or chronic toxicities were observed | did not show any apparent toxicity | cellular γH2AX response (genotoxic stress) [5]: induces genotoxic stress; also recorded: induced a cellular γH2AX response |
| CCOC(=O)c1cnc2c(C)cc(C)cc2c1NCCCN(C)C [Compound 9, ethyl 4-(3-dimethylaminopropylamino)-6,8-dimethyl-quinoline-3-carboxylate] | 15.7 µM | G1-phase arrest | 19.6 µM | 4.6 µM | > 40 µM | 17.8 µM | 6.1 µM | No acute or chronic toxicities were observed | did not show any apparent toxicity | Mdm2 induction [4]: most prominent |
| Cc1sc2nc3c4ccccc4c(NCCCN(C)C)nn3c(=O)c2c1C [Compound 15] |  |  |  | 5.4 µM |  |  |  | No acute or chronic toxicities were observed | did not show any apparent toxicity | cellular γH2AX response (genotoxic stress) [5]: induces genotoxic stress; also recorded: induced a cellular γH2AX response; inhibition of tumor cell growth (bioluminescence) [6]: noticeable inhibition of the tumor cell growth |
| CCOc1ccc(C2=CC(c3cc(OC)c(OC)c(OC)c3)n3ncnc3N2)cc1 (stereo not drawn) [Compound 20, 5-(4-ethoxyphenyl)-7-(3,4,5-trimethoxyphenyl)-4,7-dihydro-[1,2,4]triazolo[1,5-α]pyrimidine] |  |  |  | 0.6 µM |  |  |  |  |  |  |
| Cc1cc(C)c2c(N)c3cccc(C)c3nc2n1 [Compound 23, 2,4,9-trimethylbenzo[b]-1,8-naphthyridin-5-amine] |  |  |  | 2.1 µM |  |  |  |  |  | fraction of p53-reporter activated cells at high concentrations [2]: decrease in the fraction of p53-reporter activated cells |
| COc1ccc(C2=N[C@@H](c3ccc(Cl)cc3)[C@@H](c3ccc(Cl)cc3)N2C(=O)N2CCNC(=O)C2)c(OC(C)C)c1 [Nutlin, nutlin-3a, reference compound] |  |  |  |  |  |  |  |  |  | IC50 (WS-1 diploid fibroblast): 20.6 µM; B-cell lymphoma cell killing ([7]; in vitro and in vivo mouse models): highly effective agent inducing B-cell lymphoma; adverse side-effects ([7]; mouse): does not cause any adverse side-effects; IC50 [1]: 10.7 µM; IC50 [3]: > 40 µM; IC50 (RPMI7951 (MUTp53)): > 40 µM; IC50 (A375 melanoma (WTp53)): 7.2 µM |

From patent US10214491B2, “Activators and therapeutic applications thereof” (THE JOHNS HOPKINS UNIVERSITY, priority 2007, dated 2019)
